Laboratory results reported in PubChem BioAssay AID248 (DTP/NCI, 2004).
Several values for one entry are separate records, joined by “and”; a condition that tells them apart may be missing. Identical values can stand only once. Toxic doses and inconclusive results are not listed. Rule as the data show it: active = T/C of 150% or more; inactive = T/C below 125%.

System: L1210 leukemia ip in BDF1 mice, survival T/C
Assay: NCI In Vivo Anticancer Drug Screen. Data for tumor model L1210 Leukemia (intraperitoneal) in B6D2F1 (BDF1) mice
Details: endpoint: mean survival time, higher = longer survival
How it was run: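 Survival endpoint. Drug-treated group vs vehicle group, expressed as T divided by C. Tumor passaged by transplantation.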

[1] = dose: 100.0 mg/kg/injection, schedule: Q01DX009 (ip), vehicle: Klucel (hydroxypropylcellulose) (HPC)
[2] = dose: 100.0 mg/kg/injection, schedule: Q04DX003 (ip), vehicle: Klucel (hydroxypropylcellulose) (HPC)
[3] = dose: 200.0 mg/kg/injection, schedule: Q01DX009 (ip), vehicle: Klucel (hydroxypropylcellulose) (HPC)
[4] = dose: 200.0 mg/kg/injection, schedule: Q04DX003 (ip), vehicle: Klucel (hydroxypropylcellulose) (HPC)
[5] = dose: 400.0 mg/kg/injection, schedule: Q01DX009 (ip), vehicle: Klucel (hydroxypropylcellulose) (HPC)
[6] = dose: 400.0 mg/kg/injection, schedule: Q04DX003 (ip), vehicle: Klucel (hydroxypropylcellulose) (HPC)

Measured: T/C

O=c1c(Br)cocc1Br
inactive: dose: 100.0 mg/kg/injection, schedule: Q01DX009 (ip), vehicle: saline with Tween-80 92 % of control | dose: 200.0 mg/kg/injection, schedule: Q01DX009 (ip), vehicle: saline with Tween-80 97 % of control | dose: 400.0 mg/kg/injection, schedule: Q01DX009 (ip), vehicle: saline with Tween-80 102 % of control

Cc1cc(C)c2[nH]c(=O)cc(C)c2c1
inactive: dose: 100.0 mg/kg/injection, schedule: Q01DX001 (ip), vehicle: other 97 % of control and 98 % of control | dose: 200.0 mg/kg/injection, schedule: Q01DX001 (ip), vehicle: other 97 % of control and 95 % of control | dose: 400.0 mg/kg/injection, schedule: Q01DX001 (ip), vehicle: other 108 % of control and 95 % of control

CCc1c(Nc2ccccc2Cl)[nH]c(N)nc1=S
inactive: dose: 100.0 mg/kg/injection, schedule: Q01DX Z (ip), vehicle: methylcellulose (MC) 97 % of control | dose: 200.0 mg/kg/injection, schedule: Q01DX Z (ip), vehicle: methylcellulose (MC) 97 % of control

O=S(=O)(c1ccc(OCC(O)COc2ccc(S(=O)(=O)c3ccc(OCC4CO4)cc3)cc2)cc1)c1ccc(OCC2CO2)cc1 (stereo not given)
inactive: dose: 100.0 mg/kg/injection, schedule: Q01DX001 (ip), vehicle: saline 106 % of control | dose: 200.0 mg/kg/injection, schedule: Q01DX001 (ip), vehicle: saline 109 % of control | dose: 400.0 mg/kg/injection, schedule: Q01DX001 (ip), vehicle: saline 104 % of control

Cc1ccc(NC(=S)NC(Cc2ccccc2)c2ccccc2)c(C)c1 (stereo not given)
inactive: [1] 106 % of control | [2] 98 % of control | [3] 87 % of control | [4] 96 % of control | [5] 101 % of control | [6] 98 % of control

O=NN(c1ccccc1)c1ccc(N(N=O)c2ccccc2)cc1
inactive: dose: 50.0 mg/kg/injection, schedule: Q01DX009 (ip), vehicle: Klucel (hydroxypropylcellulose) (HPC) 97 % of control | [1] 96 % of control | [2] 93 % of control | [3] 100 % of control | [4] 100 % of control | [5] 96 % of control | [6] 96 % of control

CCOC(=O)C1=C(C)NC(=O)NC1c1ccc(N(CCCl)CCCl)cc1 (stereo not given)
inactive: [1] 93 % of control | [2] 97 % of control | [3] 112 % of control | [4] 90 % of control | [5] 104 % of control | [6] 101 % of control

C=COC1CCCCC1
inactive: [1] 101 % of control | [2] 97 % of control | [3] 100 % of control | [4] 90 % of control | [5] 95 % of control | [6] 88 % of control

COc1ccc(C(=O)NC(=O)Nc2ccccc2)cc1
inactive: dose: 15.0 mg/kg/injection, schedule: Q01DX001 (ip), vehicle: saline 97 % of control | dose: 30.0 mg/kg/injection, schedule: Q01DX001 (ip), vehicle: saline 91 % of control | dose: 60.0 mg/kg/injection, schedule: Q01DX001 (ip), vehicle: saline 92 % of control

Cc1cccc(CN=C(N)CCl)n1
inactive: dose: 100.0 mg/kg/injection, schedule: Q04DX002 (ip), vehicle: Klucel (hydroxypropylcellulose) (HPC) 98 % of control | dose: 200.0 mg/kg/injection, schedule: Q04DX002 (ip), vehicle: Klucel (hydroxypropylcellulose) (HPC) 95 % of control

C=C(Cl)CSc1ncnc2nc[nH]c12
inactive: dose: 75.0 mg/kg/injection, schedule: Q01DX001 (ip), vehicle: saline 98 % of control

CCCCCCCNC(=O)OCC
inactive: dose: 55.0 mg/kg/injection, schedule: Q01DX Z (ip), vehicle: methylcellulose (MC) 93 % of control | dose: 83.0 mg/kg/injection, schedule: Q01DX Z (ip), vehicle: methylcellulose (MC) 93 % of control | dose: 125.0 mg/kg/injection, schedule: Q01DX Z (ip), vehicle: methylcellulose (MC) 104 % of control
